These results are taken from ChEMBL document CHEMBL1159255, “Cardenolides from Nierembergia aristata” (1995).

Structures are written as SMILES. In brackets after ≈: the same amount, converted by molar mass.

The subject of one assay is HT. As to the kind of experiment: Cytotoxicity against human HT cells. Format: functional. As to conditions: read-out: ED50 (the source's name).
Another assay relates to A-431. As to the kind of experiment: Cytotoxicity against human A431 cells. Format: functional. To be noted: read-out: ED50 (the source's name).
The subject of another assay is KB. As to the kind of experiment: Cytotoxicity against human KB cells. Format: functional. As to conditions: read-out: ED50 (the source's name).
A short description of assay [1]: Cytotoxicity against human KBVIN cells in absence of vinblastine. Type of assay: functional. As to conditions: read-out: ED50 (the source's name).
Assay [2] is described as follows: Cytotoxicity against human KBVIN cells in presence of vinblastine. Type of assay: functional. To be noted: read-out: ED50 (the source's name).
Another assay concerns SK-MEL-2. The assay is described as follows: Cytotoxicity against human SK-MEL-2 cells. Format: functional. As to conditions: read-out: ED50 (the source's name).
The test system of a further assay is Col2. As to the kind of experiment: Cytotoxicity against human Col2 cells. As to conditions: read-out: ED50 (the source's name). Format: functional.
The test system of another assay is LNCaP. The assay is described as follows: Cytotoxicity against human LNCAP cells. Format: functional. As to conditions: read-out: ED50 (the source's name).
Another assay relates to ZR-75-1. As to the kind of experiment: Cytotoxicity against human ZR-75-1 cells. Type of assay: functional. To be noted: read-out: ED50 (the source's name).
The next assay concerns Lu1. The assay is described as follows: Cytotoxicity against human Lu1 cells. Type of assay: functional. To be noted: read-out: ED50 (the source's name).
Assay [3] is described as follows: Cytotoxicity against human U373 cells. Format: functional, U-373MG ATCC. As to conditions: U373 MG, read-out: ED50 (the source's name).
The nature of assay [4]: Cytotoxicity against human BC1 cells. As to conditions: read-out: ED50 (the source's name). Format: functional.

As to `C[C@H]1O[C@@H](O[C@H]2CC[C@]3(C=O)[C@H]4CC[C@]5(C)[C@@H](C6=CC(=O)OC6)CC[C@]5(O)[C@@H]4C=C[C@]3(O)C2)C[C@H](O)[C@H]1O`, the EC50 stood at 0.05 µg/mL (≈ 0.0939 µM) in the assay on HT; 0.09 µg/mL (≈ 0.169 µM) in the assay on A-431; 0.04 µg/mL (≈ 0.0751 µM) in the assay on KB; 0.06 µg/mL (≈ 0.113 µM) in assay [1]; 0.05 µg/mL in assay [2]; 0.05 µg/mL (≈ 0.0939 µM) in the assay on SK-MEL-2. In addition, the EC50 with Col2 amounted to 0.07 µg/mL (≈ 0.131 µM); with LNCaP it was 0.1 µg/mL (≈ 0.188 µM); in the assay on ZR-75-1 it was 0.08 µg/mL (≈ 0.15 µM); with Lu1 it was 0.03 µg/mL (≈ 0.0563 µM); in assay [3], 0.09 µg/mL (≈ 0.169 µM); in [4], 0.04 µg/mL (≈ 0.0751 µM).
Regarding `CO[C@@H]1C[C@H](O[C@H]2CC[C@]3(C=O)[C@H]4CC[C@]5(C)[C@@H](C6=CC(=O)OC6)CC[C@]5(O)[C@@H]4C=C[C@]3(O)C2)O[C@H](C)[C@H]1O`, the EC50 is 0.4 µg/mL (≈ 0.732 µM) in the assay with HT; 0.7 µg/mL (≈ 1.28 µM) in the assay with A-431; 0.3 µg/mL (≈ 0.549 µM) with KB; 0.5 µg/mL (≈ 0.915 µM) in [1]; 0.3 µg/mL in assay [2]; 0.8 µg/mL (≈ 1.46 µM) with SK-MEL-2. The EC50 with Col2 turned out to be 0.9 µg/mL (≈ 1.65 µM); with LNCaP, 0.5 µg/mL (≈ 0.915 µM); with ZR-75-1, 0.2 µg/mL (≈ 0.366 µM); in the assay on Lu1, 0.1 µg/mL (≈ 0.183 µM); in assay [3] it was 0.8 µg/mL (≈ 1.46 µM); in assay [4], 0.3 µg/mL (≈ 0.549 µM).
`C[C@H]1O[C@@H](O[C@H]2CC[C@]3(C=O)[C@H]4[C@H](O)C[C@]5(C)[C@H](C6=CC(=O)OC6)CC[C@]5(O)[C@@H]4C=C[C@]3(O)C2)C[C@H](O)[C@H]1O`: the EC50 is 2.3 µg/mL (≈ 4.19 µM) in the assay on HT; 0.5 µg/mL (≈ 0.911 µM) in the assay with A-431; 0.3 µg/mL (≈ 0.547 µM) in the assay on KB; 1.6 µg/mL (≈ 2.92 µM) in [1]; 0.6 µg/mL in assay [2]; 4.1 µg/mL (≈ 7.47 µM) in the assay on SK-MEL-2. In addition, the EC50 in the assay on Col2 stood at 0.5 µg/mL (≈ 0.911 µM); in the assay on LNCaP, 0.3 µg/mL (≈ 0.547 µM); in the assay with ZR-75-1 it was 0.4 µg/mL (≈ 0.729 µM); with Lu1 it was 0.09 µg/mL (≈ 0.164 µM); in assay [3] it was 0.4 µg/mL (≈ 0.729 µM); in assay [4] it was 0.3 µg/mL (≈ 0.547 µM).
